13 compounds from US20240252677A1, “ONE-COMPONENT DELIVERY SYSTEM FOR NUCLEIC ACIDS” (The Trustees of the University of Pennsylvania, priority 2021, published 2024) can be followed below.

Each structure is given as a SMILES string.

Data set [1] in a line: Dimensions (size, PDI) of DNPs co-assembled from IAJDs and Luc-mRNA by DLS. Type of data set: physicochemical. The following applies: DNPs, IAJD 4 mg/mL + Luc-mRNA 0.10 mg/mL. An outline of the steps: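 IAJDs (80 mg/mL ethanol stock) rapidly injected into Luc-mRNA (4.0 mg/mL stock) diluted in 10 mM acetate buffer pH 4.0, then vortexed 5 s. Size and polydispersity of resulting DNPs measured by DLS (633 nm laser, 175° detection) at 23 °C.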

The test system of the next data set is liver. In words: In vivo mRNA delivery, IVIS imaging of organs: liver. On the set-up: species or system mice. As to conditions: Table 14. On the procedure:
The exposure time was 1 min.
Tissue luminescence signal was measured on the IVIS imaging system using an exposure time of 60 seconds using medium binning (binning=8) to ensure that the signal obtained was within operative detection range. […] Bioluminescence imaging was performed as described above.
Tissue luminescence signal was measured on the IVIS imaging system using a certain exposure time (60, 30 or 15 seconds) and medium binning (binning=8) to ensure that the signal obtained was within operative detection range.

Setting [2] is: Table 12, acetate buffer 10 mM pH 4.0.
Setting [3] is: Table 13, acetate buffer pH 4.0.
[4] abbreviates: Table 14, acetate buffer pH 4.0.

Take `CCCCC(CC)COC(=O)CCCCOc1cc(COC(=O)CCCN2CCN(CCO)CC2)cc(OCCCCC(=O)OCC(CC)CCCC)c1` (stereo not shown) [IAJD 95]: the PDI in data set [1] (setting [2]), in data set [1] (setting [3]) and in data set [1] (setting [4]) was 0.352 each time. For the same compound, the “Size (d, nm)” value in data set [1] (setting [2]), in data set [1] (setting [3]) and in data set [1] (setting [4]) was 105 nm in each case. Moreover, the “Organs with luminescence: liver (weak/strong)” value (“Organs … (weak/strong)” for short) in the data set on liver (imaging 6 h after injection) is recorded as “liver (weak),”.
On to `CCCCCCCCCCCCOc1cc(COC(=O)CCCN2CCN(C)CC2)cc(OCCCCCCCCCCCC)c1OCCCCCCCCCCCC` [IAJD 79, 3,4,5-Tris(dodecyloxy)benzyl 4-(4-methylpiperazin-1-yl)butanoate], for which the PDI in data set [1] (setting [2]), in data set [1] (setting [3]) and in data set [1] (setting [4]) was 0.763 throughout. Further, the “Size (d, nm)” value in data set [1] (setting [2]), in data set [1] (setting [3]) and in data set [1] (setting [4]) was 352 nm in each case. The “Organs … (weak/strong)” value with liver (imaging 6 h after injection) is “liver (weak),”.
For `CCCCCCCCCCCCCCCCCCOc1cc(COC(=O)CCCN2CCN(CCO)CC2)cc(OCCCCCCCCCCCCCCCCCC)c1` [IAJD 99, 3,5-Bis(octadecyloxy)benzyl 4-(4-(2-hydroxyethyl)piperazin-1-yl)butanoate], the PDI in data set [1] (setting [2]), in data set [1] (setting [3]) and in data set [1] (setting [4]) was 0.571 in each case. Besides, the “Size (d, nm)” value in data set [1] (setting [2]), in data set [1] (setting [3]) and in data set [1] (setting [4]) was 277 nm in each case. For the same compound, the “Organs … (weak/strong)” value with liver (imaging 6 h after injection) is listed as “liver (weak),”.
For `CCCCCCCCOc1cc(COC(=O)CCCN2CCN(C)CC2)cc(OCCCCCCCC)c1` [IAJD 88, 3,5-Bis(octyloxy)benzyl 4-(4-methylpiperazin-1-yl)butanoate], the PDI in data set [1] (setting [2]), in data set [1] (setting [3]) and in data set [1] (setting [4]) was 0.342 throughout. In addition, the “Size (d, nm)” value in data set [1] (setting [2]), in data set [1] (setting [3]) and in data set [1] (setting [4]) was 100 nm throughout. Besides, the “Organs … (weak/strong)” value in the data set on liver (imaging 6 h after injection) is “liver (weak),”.
`CCCCCCCCCCOc1cc(COC(=O)CCCN2CCN(CCO)CC2)cc(OCCCCCCCCCC)c1` [IAJD 91, 3,5-Bis(decyloxy)benzyl 4-(4-(2-hydroxyethyl)piperazin-1-yl)butanoate]: the PDI in data set [1] (setting [2]), in data set [1] (setting [3]) and in data set [1] (setting [4]) was 0.498 each time. The “Size (d, nm)” value in data set [1] (setting [2]), in data set [1] (setting [3]) and in data set [1] (setting [4]) was 188 nm in each case. Moreover, the “Organs … (weak/strong)” value in the data set on liver (imaging 6 h after injection) is “liver (weak),”.
Regarding `CCCCCCCCCCCCOc1cc(COC(=O)CCN2CCN(C)CC2)cc(OCCCCCCCCCCCC)c1` [IAJD 84, 3,5-Bis(dodecyloxy)benzyl 3-(4-methylpiperazin-1-yl)propanoate], the PDI in data set [1] (setting [2]), in data set [1] (setting [3]) and in data set [1] (setting [4]) was 0.303 in each case. In addition, the “Size (d, nm)” value in data set [1] (setting [2]), in data set [1] (setting [3]) and in data set [1] (setting [4]) was 171 nm throughout. For the same compound, the “Organs … (weak/strong)” value with liver (imaging 5 h after injection) is on record as “liver (weak),”.
With `CCCCC(CC)COc1cc(COC(=O)CCCN2CCN(C)CC2)cc(OCC(CC)CCCC)c1` (stereo not shown) [IAJD 76, 3,5-Bis((2-ethylhexyl)oxy)benzyl 4-(4-methylpiperazin-1-yl)butanoate], the PDI in data set [1] (setting [2]), in data set [1] (setting [3]) and in data set [1] (setting [4]) was 0.287 in each case. The “Size (d, nm)” value in data set [1] (setting [2]), in data set [1] (setting [3]) and in data set [1] (setting [4]) was 78 nm each time. Also, the “Organs … (weak/strong)” value with liver (imaging 5 h after injection) is “liver (weak),”.
Take `CCCCC(CC)COc1cc(COC(=O)CCCN2CCN(C)CC2)cc(OCC(CC)CCCC)c1OCC(CC)CCCC` (stereo not shown) [IAJD 96, 3,4,5-Tris((2-ethylhexyl)oxy)benzyl 4-(4-methylpiperazin-1-yl)butanoate]: the PDI in data set [1] (setting [2]), in data set [1] (setting [3]) and in data set [1] (setting [4]) was 0.402 each time. Also, the “Size (d, nm)” value in data set [1] (setting [2]), in data set [1] (setting [3]) and in data set [1] (setting [4]) was 139 nm in each case. Besides, the “Organs … (weak/strong)” value in the data set on liver (imaging 5 h after injection) is “liver (weak),”.
Turning to `CCCCCCCCCCCCCCCCOc1cc(COC(=O)CCCN2CCN(C)CC2)cc(OCCCCCCCCCCCCCCCC)c1` [IAJD 75, 3,5-Bis(hexadecyloxy)benzyl 4-(4-methylpiperazin-1-yl)butanoate], the PDI in data set [1] (setting [2]), in data set [1] (setting [3]) and in data set [1] (setting [4]) was 0.328 each time. Also, the “Size (d, nm)” value in data set [1] (setting [2]), in data set [1] (setting [3]) and in data set [1] (setting [4]) was 235 nm in each case. The “Organs … (weak/strong)” value with liver (imaging 5 h after injection) is given as “liver (weak),”.
As for `CCCCCCCCCOc1cc(COC(=O)CCCN2CCN(C)CC2)cc(OCCCCCCCCC)c1` [IAJD 77, 3,5-Bis(nonyloxy)benzyl 4-(4-methylpiperazin-1-yl)butanoate], the PDI in data set [1] (setting [2]), in data set [1] (setting [3]) and in data set [1] (setting [4]) was 0.267 each time. Moreover, the “Size (d, nm)” value in data set [1] (setting [2]), in data set [1] (setting [3]) and in data set [1] (setting [4]) was 110 nm throughout. In addition, the “Organs … (weak/strong)” value with liver (imaging 5 h after injection) was “liver (weak),”.
For `CCCCCCCCOc1cc(COC(=O)CCCN2CCN(CCO)CC2)cc(OCCCCCCCC)c1` [IAJD 89], the PDI in data set [1] (setting [2]), in data set [1] (setting [3]) and in data set [1] (setting [4]) was 0.467 throughout. Also, the “Size (d, nm)” value in data set [1] (setting [2]), in data set [1] (setting [3]) and in data set [1] (setting [4]) was 149 nm in each case. Besides, in the data set with liver (imaging 6 h after injection), the “Organs … (weak/strong)” value is listed as “liver (weak),”.
Take `CCCCCCCCCCCCOCC(COCCCCCCCCCCCC)(COCCCCCCCCCCCC)COC(=O)CCCN1CCN(CCO)CC1` [IAJD 83, 3-(Dodecyloxy)-2,2-bis((dodecyloxy)methyl)propyl 4-(4-(2-hydroxyethyl)piperazin-1-yl)butanoate]: the PDI in data set [1] (setting [2]), in data set [1] (setting [3]) and in data set [1] (setting [4]) was 0.430 each time. The “Size (d, nm)” value in data set [1] (setting [2]), in data set [1] (setting [3]) and in data set [1] (setting [4]) was 143 nm in each case. Moreover, the “Organs … (weak/strong)” value in the data set with liver (imaging 5 h after injection) is given as “liver (weak),”.
As for `CCCCCCCCCCCCCCCCCCOc1cc(COC(=O)CCCN2CCN(C)CC2)cc(OCCCCCCCCCCCCCCCCCC)c1` [IAJD 98, 3,5-Bis(octadecyloxy)benzyl 4-(4-methylpiperazin-1-yl)butanoate], the PDI in data set [1] (setting [2]), in data set [1] (setting [3]) and in data set [1] (setting [4]) was 0.221 throughout. Further, the “Size (d, nm)” value in data set [1] (setting [2]), in data set [1] (setting [3]) and in data set [1] (setting [4]) was 187 nm in each case. For the same compound, in the data set on liver (imaging 6 h after injection), the “Organs … (weak/strong)” value is given as “liver (weak),”.
